From patent US10226453B2, “3-(1H-indol-2-yl)-1H-pyrazolo[4,3-B]pyridines and therapeutic uses thereof” (Samumed, LLC, priority 2015, dated 2019)

Experiments:
Format in all cases: cell-based
[1] = system: Wnt activity (Sp5-Luc reporter, SW480 colon carcinoma cells); test: Wnt activity screening assay: Sp5-Luc reporter gene in SW480 colon carcinoma cells; conditions: Homo sapiens; for EC50: overnight incubation, 10-point curve from 10 μM; for inhibition at 10 µM: given where EC50 >10 μM, read-out: percent inhibition at 10 μM
Procedure, shortened: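 Luminescence read-out (BrightGlo) from stable Sp5-Luc SW480 cells, normalized to DMSO-only wells. Cells were treated overnight at 37° C in 1% FBS medium across a 1:3, 10-point series starting at 10 μM. EC50 from variable-slope four-parameter regression; percent inhibition at 10 μM given where EC50 >10 μM.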

[2] = system: primary human fibroblasts derived from IPF patients (LL29 cells) treated with TGF-β1; test: Inhibition of the fibrotic process: αSMA staining in TGF-β1 treated primary human fibroblasts from IPF patients (LL29 cells); conditions: Fibroblast, 96 h, TGF-β1 20 ng/mL, 4 days; for EC50: % αSMA positive cells; for inhibition at 10 µM: given where EC50 >10 μM, read-out: percent inhibition at 10 μM
Procedure, shortened: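 EC50 values come from non-linear fits of the αSMA-positive percentage among SYTOX-excluded live cells, normalized to TGF-β1 plus DMSO controls, or appear as % inhibition at 10 μM when above 10 μM. Fibrosis was induced in IPF-derived LL29 fibroblasts by 20 ng/mL TGF-β1 over 4 days, with 1:2 compound dilutions from 10 μM.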

[3] = system: SW480 colon cancer cells; test: Cell viability assay (CellTiter-Blue), SW480 colon cancer cells; conditions: Homo sapiens, 96 h, four days; for EC50: CellTiter-Blue; for inhibition at 10 µM: given where EC50 >10 μM, read-out: percent inhibition at 10 μM
Procedure, shortened: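 SW480 cells (~2×10^3/well) exposed four days at 37 °C to 8-point 1:3 dilutions, 10 μM down to 0.0045 μM. Viability from resazurin reduction (CellTiter-Blue, ~3 h, Ex 560/Em 590); EC50 by non-linear regression, or percent inhibition at 10 μM where EC50 exceeds 10 μM.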

SMILES | EC50 [1] | EC50 [3] | EC50 [2] | inhibition at 10 µM [1] | inhibition at 10 µM [3] | inhibition at 10 µM [2]
CN1CCN(c2cccc3[nH]c(-c4n[nH]c5ccc(-c6cncnc6)nc45)cc23)CC1 [Compound 251, 3-(4-(4-Methylpiperazin-1l-yl)-1H-indol-2-yl)-5-(pyrimidin-5-yl)-1H-pyrazolo[4,3-b]pyridine] | > 10000 nM | > 10000 nM | 7790 nM | 38.4% | 15.3% | 
Fc1ccccc1-c1cccc2[nH]c(-c3n[nH]c4ccc(-c5cncc(CN6CCCCC6)c5)nc34)cc12 [Compound 71, 3-(4-(2-Fluorophenyl)-1H-indol-2-yl)-5-(5-(piperidin-1-ylmethyl)pyridin-3-yl)-1H-pyrazolo[4,3-b]pyridine] | 663 nM | 1060 nM | 725 nM |  |  | 
Cc1ccncc1-c1ccc2[nH]nc(-c3cc4c(-c5ccncc5)cccc4[nH]3)c2n1 [Compound 117, 5-(4-Methylpyridin-3-yl)-3-(4-(pyridin-4-yl)-1H-indol-2-yl)-1H-pyrazolo [4,3-b]pyridine] | 299 nM | 696 nM | 197 nM |  |  | 
Cc1ccncc1-c1ccc2[nH]nc(-c3cc4c(N5CCN(C)CC5)cccc4[nH]3)c2n1 [Compound 229, 3-(4-(4-Methylpiperazin-1-yl)-1H-indol-2-yl)-5-(4-methylpyridin-3-yl)-1H-pyrazolo[4,3-b]pyridine] | 2020 nM | 4740 nM | 4920 nM |  |  | 
CC(C)(C)C(=O)Nc1cncc(-c2ccc3[nH]nc(-c4cc5c(-c6cccc(F)c6)cccc5[nH]4)c3n2)c1 [Compound 8, N-(5-(3-(4-(3-Fluorophenyl)-1H-indol-2-yl)-1H-pyrazolo[4,3-b]pyridin-5-yl)pyridin-3-yl)pivalamide] | 2930 nM | > 10000 nM | 3670 nM |  | 20.9% | 
c1cncc(-c2ccc3[nH]nc(-c4cc5c(-c6cccnc6)cccc5[nH]4)c3n2)c1 [Compound 88, 5-(Pyridin-3-yl)-3-(4-(pyridin-3-yl)-1H-indol-2-yl)-1H-pyrazolo[4,3-b] pyridine] | 185 nM | 775 nM | 88 nM |  |  | 
c1ccc(-c2cccc3[nH]c(-c4n[nH]c5ccc(-c6cncnc6)nc45)cc23)nc1 [Compound 167, 3-(4-(Pyridin-2-yl)-1H-indol-2-yl)-5-(pyrimidin-5-yl)-1H-pyrazolo[4,3-b] pyridine] | 431 nM | > 10000 nM | 201 nM |  | 13.8% | 
c1cncc(-c2ccc3[nH]nc(-c4cc5ccccc5[nH]4)c3n2)c1 [Compound 256, 3-(1H-Indol-2-yl)-5-(pyridin-3-yl)-1H-pyrazolo[4,3-b]pyridine] | 1300 nM | > 10000 nM | 1140 nM |  | 37.6% | 
c1cc(-c2ccncc2)c2cc(-c3n[nH]c4ccc(-c5cncc(CNCC6CCCC6)c5)nc34)[nH]c2c1 [Compound 137, 1-Cyclopentyl-N-((5-(3-(4-(pyridin-4-yl)-1H-indol-2-yl)-1H-pyrazolo[4,3-b]pyridin-5-yl)pyridin-3-yl)methyl)methanamine] | 7160 nM | > 10000 nM | 701 nM |  | 14.7% | 
c1cc(-c2ccncc2)c2cc(-c3n[nH]c4ccc(-c5cncc(CN6CCCCC6)c5)nc34)[nH]c2c1 [Compound 127, 5-(5-(Piperidin-1-ylmethyl)pyridin-3-yl)-3-(4-(pyridin-4-yl)-1H-indol-2-yl)-1H-pyrazolo[4,3-b]pyridine] | 5160 nM | 1920 nM | 8900 nM |  |  | 
CN(C)Cc1cncc(-c2ccc3[nH]nc(-c4cc5ccccc5[nH]4)c3n2)c1 [Compound 265, 1-(5-(3-(1H-Indol-2-yl)-1H-pyrazolo[4,3-b]pyridin-5-yl)pyridin-3-yl)-N,N-dimethylmethanamine] | 904 nM | 2940 nM | 521 nM |  |  | 
CCCCC(=O)Nc1cncc(-c2ccc3[nH]nc(-c4cc5c(N6CCCCC6)cccc5[nH]4)c3n2)c1 [Compound 187, N-(5-(3-(4-(Piperidin-1-yl)-1H-indol-2-yl)-1H-pyrazolo[4,3-b]pyridin-5-yl)pyridin-3-yl)pentanamide] | 572 nM | 4440 nM | 2040 nM |  |  | 
CN1CCN(c2cccc3[nH]c(-c4n[nH]c5ccc(-c6cncc(NC(=O)c7ccccc7)c6)nc45)cc23)CC1 [Compound 235, N-(5-(3-(4-(4-Methylpiperazin-1-yl)-1H-indol-2-yl)-1H-pyrazolo[4,3-b]pyridin-5-yl)pyridin-3-yl)benzamide] | 4060 nM | 3910 nM | 1690 nM |  |  | 
c1ccc(-c2ccc3[nH]nc(-c4cc5c(N6CCCCC6)cccc5[nH]4)c3n2)nc1 [Compound 196, 3-(4-(Piperidin-1-yl)-1H-indol-2-yl)-5-(pyridin-2-yl)-1H-pyrazolo[4,3-b] pyridine] | > 10000 nM | > 10000 nM | > 10000 nM | 6.2% | 10.4% | 5.2%

The next lines start with results.

EC50 [1] | EC50 [3] | SMILES | EC50 [2] | inhibition at 10 µM [1] | inhibition at 10 µM [3] | inhibition at 10 µM [2]
767 nM | 1290 nM | c1cnc2cc(-c3n[nH]c4ccc(-c5cn[nH]c5)nc34)[nH]c2c1 [Compound 1021, 5-(1H-Pyrazol-4-yl)-3-(1H-pyrrolo[3,2-b]pyridin-2-yl)-1H-pyrazolo[4,3-b] pyridine] | 1370 nM |  |  | 
498 nM | 1300 nM | CN(C)CCNc1cc(F)cc(-c2cccc3[nH]c(-c4n[nH]c5ccc(-c6cncnc6)nc45)cc23)c1 [Compound 475, N^1-(3-Fluoro-5-(2-(5-(pyrimidin-5-yl)-1H-pyrazolo[4,3-b]pyridin-3-yl)-1H-indol-4-yl)phenyl)-N^2,N^2-dimethylylethane-1,2-diamine] | 306 nM |  |  | 
162 nM | 592 nM | Cc1ccncc1-c1ccc2[nH]nc(-c3cc4c(-c5cc(F)cc(CNS(C)(=O)=O)c5)cccc4[nH]3)c2n1 [Compound 481, N-(3-Fluoro-5-(2-(5-(4-methylpyridin-3-yl)-1H-pyrazolo[4,3-b]pyridin-3-yl)-1H-indol-4-yl)benzyl)methanesulfonamide] | 78 nM |  |  | 
1600 nM | > 10000 nM | O=C(CC1CCNCC1)Nc1cncc(-c2ccc3[nH]nc(-c4cc5c(-c6ccccn6)cccc5[nH]4)c3n2)c1 [Compound 621, 2-(Piperidin-4-yl)-N-(5-(3-(4-(pyridin-2-yl)-1H-indol-2-yl)-1H-pyrazolo[4,3-b]pyridin-5-yl)pyridin-3-yl)acetamide] | 2120 nM |  | 51% | 
4620 nM | 5900 nM | CN(C)CCNc1cc(F)cc(-c2cccc3[nH]c(-c4n[nH]c5ccc(-c6ccccn6)nc45)cc23)c1 [Compound 476, N^1-(3-Fluoro-5-(2-(5-(pyridin-2-yl)-1H-pyrazolo[4,3-b]pyridin-3-yl)-1H-indol-4-yl)phenyl)-N^2,N^2-dimethylethane-1,2-diamine] | 2120 nM |  |  | 
117 nM | 590 nM | FC1(F)CCN(Cc2cncc(-c3ccc4[nH]nc(-c5cc6ccccc6[nH]5)c4n3)c2)C1 [Compound 278, 5-(5-((3,3-Difluoropyrrolidin-1-yl)methyl)pyridin-3-yl)-3-(1H-indol-2-yl)-1H-pyrazolo[4,3-b]pyridine] | 90 nM |  |  | 
> 10000 nM | > 10000 nM | Oc1cncc(-c2ccc3[nH]nc(-c4cc5c(-c6cccs6)cccc5[nH]4)c3n2)c1 [Compound 737, 5-(3-(4-(Thiophen-2-yl)-1H-indol-2-yl)-1H-pyrazolo[4,3-b]pyridin-5-yl) pyridin-3-ol] | 2030 nM | 3.3% | 0% | 
600 nM | 1910 nM | CN(C)c1cncc(-c2ccc3[nH]nc(-c4cc5c(-c6ccoc6)cccc5[nH]4)c3n2)c1 [Compound 315, 5-(3-(4-(Furan-3-yl)-1H-indol-2-yl)-1H-pyrazolo[4,3-b]pyridin-5-yl)-N,N-dimethylpyridin-3-amine] | 631 nM |  |  | 
883 nM | 4380 nM | Oc1cncc(-c2ccc3[nH]nc(-c4cc5ncccc5[nH]4)c3n2)c1 [Compound 1031, 5-(3-(1H-Pyrrolo[3,2-b]pyridin-2-yl)-1H-pyrazolo[4,3-b]pyridin-5-yl) pyridin-3-ol] | > 10000 nM |  |  | 18.4%
8160 nM | > 10000 nM | c1cc(-c2ccoc2)c2cc(-c3n[nH]c4ccc(-c5cn[nH]c5)nc34)[nH]c2c1 [Compound 711, 3-(4-(Furan-3-yl)-1H-indol-2-yl)-5-(1H-pyrazol-4-yl)-1H-pyrazolo[4,3-b] pyridine] | 8810 nM |  | 12.4% | 
4990 nM | 1880 nM | c1cc(-c2ccncc2)c2cc(-c3n[nH]c4ccc(-c5cncc(OCCN6CCCC6)c5)nc34)[nH]c2c1 [Compound 606, 3-(4-(Pyridin-4-yl)-1H-indol-2-yl)-5-(5-(2-(pyrrolidin-1-yl)ethoxy)pyridin-3-yl)-1H-pyrazolo[4,3-b]pyridine] | 1280 nM |  |  | 
